Test results reported in patent US8008092B2, “CCR3 inhibition for ocular angiogenesis and macular degeneration” (University of Kentucky Research Foundation, priority 2007, dated 2011).

Key:
[1] = tested on: choroidal neovascularization (CNV); assay: Laser-induced choroidal neovascularization (CNV) volume, intravitreous injection; assay type: in vivo, C57BL/6J mice; settings: wild-type mice, injected into the vitreous humor immediately after laser injury; compared to vehicle control (DMSO)
Method: Laser photocoagulation (532 nm, 200 mW, 100 ms, 75 μm) (OcuLight GL, Iridex Corporation) was performed (volume studies: 3/eye; protein analyses/flow cytometry: 12/eye) on both eyes of each animal to induce CNV (choroidal neovascularization). CNV volumes were measured by scanning laser confocal microscope (TCS SP, Leica) with 0.5% FITC-Griffonia simplicifolia Isolectin B4 (Vector Laboratories). CNV was induced by laser injury in C57BL/6J and Ccr3^−/− mice and volumes measured 7 days later by confocal evaluation of Griffonia simplicifolia Isolectin B4 staining of RPE-choroid flatmounts. […]
Because the probability of each laser lesion developing CNV is influenced by the group to which it belongs, the mouse, the eye, and the laser spot, the mean lesion volumes were compared using a linear mixed model with a split plot repeated measures design. […] Statistical significance was determined at the 0.05 level. […]
Laser photocoagulation (532 nm, 200 mW, 100 ms, 75 μm) (OcuLight GL, Iridex Corporation) was performed (volume studies: 3/eye; protein analyses/flow cytometry: 12/eye) on both eyes of each animal to induce CNV. CNV volumes were measured by scanning laser confocal microscope (TCS SP, Leica) with 0.5% FITC-Griffonia simplicifolia Isolectin B4 (Vector Laboratories) or 0.5% FITC-rat antibody against mouse CD31 (BD Biosciences). […]

[2] = tested on: Rac-1 GTPase in Human CECs (hCECs); assay: Rac-1 activation assay (GST-Pak1-PBD pull-down, western blot); assay type: cell-based; settings: hCEC, eotaxin-1 10 ng/ml, at 10 seconds, normalized against control band density
Method: A Rac-1 activation assay was performed. Human CECs were cultured in EGM-2 MV containing 5% FBS. Prior to starting the assay, cells were serum starved with basal medium (MCDB131) supplemented with 1% FB S overnight. Cells were stimulated for designated times with Eotaxin-1, 2 and 3 (10 ng/ml, 100 ng/ml and 2 μg/ml respectively). Equal amounts of lysates (500 μg) were incubated with GST-Pak1-PBD agarose beads (Upstate) to pull-down active GTP-bound Rac-1 at 4° C. for 1 hour with rotation. The samples were subsequently analyzed for bound Rac-1 by western blot analysis using an anti-Rac-1 antibody (Upstate). Band density was measured using VisionWorksLS software (UVP).
hCECs) were stimulated with Eotaxin-1, 2 and 3 for indicated times. Cells without Eotaxin stimulation were used as a control (0 sec). Equal amount (500 μg) of total cell lysates was used to determine the GTP-bound Rac-1 (active) by pull-down assays. Levels of increase of active Rac-1 were measured after normalizing against the control band density.

primary hCEC = assay: F-actin polymerization assay; assay type: cell-based, human; settings: eotaxin-1 10 ng/mL, eotaxin-2 100 ng/mL, eotaxin-3 2 μg/mL
Method: A F-actin polymerization assay was performed. 10,000 cells from early passage primary hCEC isolates (n=3) were seeded in black-walled 96-well plates and grown to 70-80% confluency in fully supplemented EGM-2MV. Cultures were serum starved overnight in basal media and then stimulated with recombinant human eotaxin-1 (10 ng/mL), eotaxin-2 (100 ng/mL), eotaxin-3 (2 μg/mL) (Peprotech), or vehicle control (PBS). At 0, 10, 30, 60, or 120 second time-points (n=4 per group), cells were fixed in 3.7% paraformaldehyde for 10 minutes, washed, permeabilized in PBS with 0.1% Triton-X, and then stained with rhodamine labeled Phalloidin (1:200, Invitrogen) per manufacturer's recommendations. Plates were analyzed on a fluorescent plate reader (Synergy 4, Biotek) followed by fluorescent microscopy (Nikon E800).
F-actin polymer ratios between baseline and treated cultures were calculated using a fluorescent based plate assay.

| Molecule | CNV volume [1] | increase of Rac-1 activation [2] | time of peak F-actin polymerization after stimulation (primary hCEC) [s] |
| --- | --- | --- | --- |
| (S)-Methyl-2-naphthoylamino-3-(4-nitrophenyl)propionate [SB328437] | reduces CNV volume in a dose-dependent and statistically significant manner | – | – |
| Eotaxin-1: recombinant human eotaxin-1 (Peprotech), CCR3 ligand | – | about 6.5 fold | 10 |
| Eotaxin-3: recombinant human eotaxin-3 (Peprotech), CCR3 ligand (protein, UniProt Q9Y258 24-94, looked up) C-C motif chemokine 26: TRGSDISKTCCFQYSHKPLPWTWVRSYEFTSNSCSQRAVIFTTKRGKKVCTHPRKKWVQKYISLLKTPKQL | – | – | 10 |
| Eotaxin-2: recombinant human eotaxin-2 (Peprotech), CCR3 ligand (protein, UniProt O00175 27-119, looked up) C-C motif chemokine 24: VVIPSPCCMFFVSKRIPENRVVSYQLSSRSTCLKAGVIFTTKKGQQFCGDPKQEWVQRYMKNLDAKQKKASPRARAVAVKGPVQRYPGNQTTC | – | – | 10 |
